pEC50: −log10 of the molar value. Where only a bound is given, the exact number is not on record here.

The first assay has as its system HBV rcDNA in HepDE19 cells. In words: HepDE19 assay with bDNA quantitation of HBV rcDNA. Type of assay: cell-based, hepatitis B virus. As to conditions: HepDE19 assay, inhibition of rcDNA formation, bDNA quantitation; read-out: DE-19bDNA EC50.
Usually pEC50 stands for the EC50 on a negative log10 scale, so that one unit is a factor of ten. For `CN(C(=O)c1ccc2cn[nH]c2c1)C1COCc2[nH]c(=O)c3cc(F)ccc3c21` (single isomer, unassigned) [Compound 470, N-(8-fluoro-6-oxo-1,4,5,6-tetrahydro-2H-pyrano[3,4-c]isoquinolin-1-yl)-N-methyl-1H-indazole-6-carboxamide], the negative-log EC50 (pEC50) was 5.96. On the same count and under the same terms, under `CN(C(=O)c1ccc2c(c1)CCC2)C1CNCc2[nH]c(=O)c3cc(F)c(F)cc3c21` (single isomer, unassigned) [Compound 471, N-(8,9-difluoro-6-oxo-1,2,3,4,5,6-hexahydrobenzo[c][1,7]naphthyridin-1-yl)-N-methyl-2,3-dihydro-1H-indene-5-carboxamide] stands 5.06; under `CN(C(=O)c1ccc2c(c1)CCC2)C1CNCc2[nH]c(=O)c3cc(F)c(F)cc3c21` (single isomer, unassigned) [Compound 472, N-(8,9-difluoro-6-oxo-1,2,3,4,5,6-hexahydrobenzo[c][1,7]naphthyridin-1-yl)-N-methyl-2,3-dihydro-1H-indene-5-carboxamide], 7.40; under `CN(C(=O)c1cc2ccccc2[nH]1)C1CCCc2[nH]c(=O)c3cc(F)ccc3c21` (single isomer, unassigned) [Compound 475, N-(8-Fluoro-6-oxo-1,2,3,4,5,6-hexahydrophenanthridin-1-yl)-N-methyl-1H-indole-2-carboxamide], 5.74. Take `CN(C(=O)c1cc2ccccc2[nH]1)C1CCCc2[nH]c(=O)c3cc(F)ccc3c21` (single isomer, unassigned) [Compound 476, N-(8-Fluoro-6-oxo-1,2,3,4,5,6-hexahydrophenanthridin-1-yl)-N-methyl-1H-indole-2-carboxamide]: the pEC50 was 7.70. The same measure, in the same setting: then `CN(C(=O)c1ccc2cn[nH]c2c1)C1CNCc2[nH]c(=O)c3cc(F)c(F)cc3c21` (single isomer, unassigned) [Compound 495, N-(8,9-difluoro-6-oxo-1,2,3,4,5,6-hexahydrobenzo[c][1,7]naphthyridin-1-yl)-N-methyl-1H-indazole-6-carboxamide], with < 4.60; and `CN(C(=O)c1ccc2cn[nH]c2c1)C1CNCc2[nH]c(=O)c3cc(F)c(F)cc3c21` (single isomer, unassigned) [Compound 496, N-(8,9-difluoro-6-oxo-1,2,3,4,5,6-hexahydrobenzo[c][1,7]naphthyridin-1-yl)-N-methyl-1H-indazole-6-carboxamide], with 5.38; and `CN(C(=O)c1cc2sc(F)cc2[nH]1)C1COCc2[nH]c(=O)c3cc(F)ccc3c21` (single isomer, unassigned) [Compound 497, 2-fluoro-N-(8-fluoro-6-oxo-1,4,5,6-tetrahydro-2H-pyrano[3,4-c]isoquinolin-1-yl)-N-methyl-4H-thieno[3,2-b]pyrrole-5-carboxamide], with 5.92. For the compound `CN(C(=O)c1cc2sc(F)cc2[nH]1)C1COCc2[nH]c(=O)c3cc(F)ccc3c21` (single isomer, unassigned) [Compound 498, 2-fluoro-N-(8-fluoro-6-oxo-1,4,5,6-tetrahydro-2H-pyrano[3,4-c]isoquinolin-1-yl)-N-methyl-4H-thieno[3,2-b]pyrrole-5-carboxamide], the pEC50 was 7.10. As for `CN(C(=O)c1cc2sc(F)cc2[nH]1)C1CNCc2[nH]c(=O)c3cc(F)c(F)cc3c21` (single isomer, unassigned) [Compound 499, N-(8,9-difluoro-6-oxo-1,2,3,4,5,6-hexahydrobenzo[c][1,7]naphthyridin-1-y1)-2-fluoro-N-methyl-4H-thieno[3,2-b]pyrrole-5-carboxamide], the pEC50 is 4.70.

Turning to `CN(C(=O)c1cc2sc(F)cc2[nH]1)C1CNCc2[nH]c(=O)c3cc(F)c(F)cc3c21` (single isomer, unassigned) [Compound 500, N-(8,9-difluoro-6-oxo-1,2,3,4,5,6-hexahydrobenzo[c][1,7]naphthyridin-1-yl)-2-fluoro-N-methyl-4H-thieno[3,2-b]pyrrole-5-carboxamide], the pEC50 is 7.52.

In the case of `CN(C(=O)c1cc2cc(F)ccc2[nH]1)[C@@H]1CCC(O)c2[nH]c(=O)c3cc(F)c(F)cc3c21` (single isomer, unassigned) [Compound 501], the pEC50 is 8.00.

On to `CN(C(=O)c1cc2cc(F)ccc2[nH]1)[C@@H]1CCC(O)c2[nH]c(=O)c3cc(F)c(F)cc3c21` (single isomer, unassigned) [Compound 502], for which the pEC50 was 7.52. Still for that read-out and setting: under `CN(C(=O)c1cc2ccccc2[nH]1)[C@@H]1CCC(O)c2[nH]c(=O)c3cc(F)c(F)cc3c21` (single isomer, unassigned) [Compound 504] stands 6.24; under `CN(C(=O)c1cc2ccccc2[nH]1)[C@@H]1CCC(O)c2[nH]c(=O)c3cc(F)c(F)cc3c21` (single isomer, unassigned) [Compound 505], 7.30; under `CN(C(=O)c1cc2ccccn2c1)C1CNCc2[nH]c(=O)c3cc(F)c(F)cc3c21` (single isomer, unassigned) [Compound 506, N-(8,9-Difluoro-6-oxo-1,2,3,4,5,6-hexahydrobenzo[c][1,7]naphthyridin-1-yl)-N-methylindolizine-2-carboxamide], 4.66. The same measure, in the same setting: then `CN(C(=O)c1cc2ccccn2c1)C1CNCc2[nH]c(=O)c3cc(F)c(F)cc3c21` (single isomer, unassigned) [Compound 507, N-(8,9-Difluoro-6-oxo-1,2,3,4,5,6-hexahydrobenzo[c][1,7]naphthyridin-1-yl)-N-methylindolizine-2-carboxamide], with 7.22; and `CN(C(=O)c1cc2c(Cl)cccn2c1)C1CNCc2[nH]c(=O)c3cc(F)c(F)cc3c21` (single isomer, unassigned) [Compound 508, 8-Chloro-N-(8,9-Difluoro-6-oxo-1,2,3,4,5,6-hexahydrobenzo[c][1,7]naphthyridin-1-yl)-N-methylindolizine-2-carboxamide], with 4.94; and `CN(C(=O)c1cc2c(Cl)cccn2c1)C1CNCc2[nH]c(=O)c3cc(F)c(F)cc3c21` (single isomer, unassigned) [Compound 509, 8-Chloro-N-(8,9-Difluoro-6-oxo-1,2,3,4,5,6-hexahydrobenzo[c][1,7]naphthyridin-1-yl)-N-methylindolizine-2-carboxamide], with 8.00. Regarding `CN(C(=O)C1Cc2c(F)cc(F)cc2N1)C1COCc2[nH]c(=O)c3cc(F)c(F)cc3c21` (stereo not shown) [Compound 13, N-(8,9-Difluoro-6-oxo-1,4,5,6-tetrahydro-2H-pyrano[3,4-c]isoquinolin-1-yl)-4,6-difluoro-N-methylindoline-2-carboxamide], the pEC50 was 4.92. Take `CN(C(=O)C1Cc2c(F)cc(F)cc2N1)C1COCc2[nH]c(=O)c3cc(F)c(F)cc3c21` (stereo not shown) [Compound 14, N-(8,9-Difluoro-6-oxo-1,4,5,6-tetrahydro-2H-pyrano[3,4-c]isoquinolin-1-yl)-4,6-difluoro-N-methylindoline-2-carboxamide]: the pEC50 was 7.40.

The same assay, now with this note: Hepatitis B virus, HepDE19, HepDE19 assay, inhibition of rcDNA formation, bDNA quantitation; read-out: DE-19bDNA EC50.
With `CN(C(=O)c1ccc2[nH]ncc2c1)C1CNCc2[nH]c(=O)c3cc(F)c(F)cc3c21` (single isomer, unassigned) [Compound 474, N-(8,9-difluoro-6-oxo-1,2,3,4,5,6-hexahydrobenzo[c][1,7]naphthyridin-1-yl)-N-methyl-1H-indazole-5-carboxamide], the pEC50 was 5.42.

The record behind these values is patent US20240228504A1, “SUBSTITUTED TRICYCLIC AMIDES, ANALOGUES THEREOF, AND METHODS USING SAME” (Arbutus Biopharma Corporation, priority 2020, published 2024).
